Source: patent US5202315A, “Cephalosporin compounds” (Lucky, Ltd., priority 1989, dated 1993)
≈ marks a conversion by molar mass, not a printed value. Like-named read-outs stand apart in the source and are kept apart here.

Key:
Test in all cases: Antibacterial activity, MIC
Assay type in all cases: cell-based
[1] = system: Acinetobacter calcoaceticus ATCC 15473; details: ATCC15473, ATCC 15473, agar two-fold dilution, 37° C., 20 hours, read-out: MIC
Outline: (§1)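 Values reflect agar dilution testing: Mueller-Hinton medium, two-fold compound series, 2 μl inoculum of 10^7 CFU/ml, 20 h incubation at 37 °C.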

[2] = system: Bacillus cereus ATCC 11778; details: ATCC11778, ATCC 11778, agar two-fold dilution, 37° C., 20 hours, read-out: MIC
Outline: as §1

[3] = system: Bacillus megaterium ATCC 9885; details: Priestia megaterium, ATCC9885; ATCC 9885; agar two-fold dilution, 37° C., 20 hours; read-out: MIC
Outline: as §1

[4] = system: Citrobacter freundii ATCC 8090; details: ATCC8090, ATCC 8090, agar two-fold dilution, 37° C., 20 hours, read-out: MIC
Outline: as §1

[5] = system: Enterobacter aerogenes ATCC 29751; details: Klebsiella aerogenes, ATCC29751; ATCC 29751; agar two-fold dilution, 37° C., 20 hours; read-out: MIC
Outline: as §1

[6] = system: Enterobacter cloacae ATCC 27508; details: ATCC27508, ATCC 27508, agar two-fold dilution, 37° C., 20 hours, read-out: MIC
Outline: as §1

[7] = system: Escherichia coli ATCC 10536; details: ATCC10536, agar two-fold dilution, 37° C., 20 hours
Outline: as §1

[8] = system: Escherichia coli ATCC 25922; details: ATCC25922, agar two-fold dilution, 37° C., 20 hours
Outline: as §1

[9] = system: Klebsiella pneumoniae ATCC 10031; details: ATCC10031, ATCC 10031, agar two-fold dilution, 37° C., 20 hours, read-out: MIC
Outline: as §1

[10] = system: Micrococcus luteus ATCC 9341; details: ATCC9341, ATCC 9341, agar two-fold dilution, 37° C., 20 hours, read-out: MIC
Outline: as §1

[11] = system: Morganella morganii ATCC 8076h; details: ATCC8076H, agar two-fold dilution, 37° C., 20 hours
Outline: as §1

[12] = system: Proteus mirabilis ATCC 25933; details: ATCC25933, ATCC 25933, agar two-fold dilution, 37° C., 20 hours, read-out: MIC
Outline: as §1

[13] = system: Proteus vulgaris ATCC 6059; details: ATCC6059, ATCC 6059, agar two-fold dilution, 37° C., 20 hours, read-out: MIC
Outline: as §1

[14] = system: Providencia rettgeri ATCC 9250; details: ATCC9250, agar two-fold dilution, 37° C., 20 hours
Outline: as §1

[15] = system: Pseudomonas aeruginosa ATCC 10145; details: ATCC10145, ATCC 10145, agar two-fold dilution, 37° C., 20 hours, read-out: MIC
Outline: as §1

[16] = system: Pseudomonas aeruginosa ATCC 25619; details: ATCC25619, ATCC 25619, agar two-fold dilution, 37° C., 20 hours, read-out: MIC
Outline: as §1

[17] = system: Pseudomonas aeruginosa ATCC 27853; details: ATCC27853, ATCC 27853, agar two-fold dilution, 37° C., 20 hours, read-out: MIC
Outline: as §1

[18] = system: Salmonella typhimurium ATCC 14028; details: Salmonella enterica; ATCC 14028; agar two-fold dilution, 37° C., 20 hours; read-out: MIC
Outline: as §1

[19] = system: Serratia marcescens ATCC 27117; details: ATCC27117, ATCC 27117, agar two-fold dilution, 37° C., 20 hours, read-out: MIC
Outline: as §1

[20] = system: Shigella flexneri ATCC 11836; details: ATCC11836, agar two-fold dilution, 37° C., 20 hours
Outline: as §1

[21] = system: Shigella sonnei ATCC 11060
Outline: as §1

[22] = system: Staphylococcus aureus ATCC 10537; details: ATCC10537, ATCC 10537, agar two-fold dilution, 37° C., 20 hours, read-out: MIC
Outline: as §1

[23] = system: Staphylococcus aureus ATCC 6538p; details: ATCC6538P, ATCC 6538p, agar two-fold dilution, 37° C., 20 hours, read-out: MIC
Outline: as §1

[24] = system: Staphylococcus epidermidis ATCC 12228; details: ATCC12228, ATCC 12228, agar two-fold dilution, 37° C., 20 hours, read-out: MIC
Outline: as §1

[25] = system: Streptococcus faecalis ATCC 29212; details: Enterococcus faecalis, ATCC29212; ATCC 29212; agar two-fold dilution, 37° C., 20 hours; read-out: MIC
Outline: as §1

[26] = ATCC11060, ATCC 11060, agar two-fold dilution, 37° C., 20 hours, read-out: MIC

| SMILES | MIC [1] | MIC [2] | MIC [3] | MIC [4] | MIC [5] | MIC [6] | MIC [7] | MIC [8] | MIC [9] | MIC [10] | MIC [11] | MIC [12] | MIC [13] | MIC [14] | MIC [15] | MIC [16] | MIC [17] | MIC [18] | MIC [19] | MIC [20] | also measured |
| --- | --- | --- | --- | --- | --- | --- | --- | --- | --- | --- | --- | --- | --- | --- | --- | --- | --- | --- | --- | --- | --- |
| CCO/N=C(\C(=O)NC1C(=O)N2C(C(=O)[O-])=C(CSc3nc(N)cc(N)[n+]3CC)CSC12)c1csc(N)n1 (stereo not shown) [Compound I-12] | 4 µg/mL (≈ 6.9 µM) | 16 µg/mL (≈ 27.6 µM) | 0.063 µg/mL (≈ 0.109 µM) | 0.063 µg/mL (≈ 0.109 µM) | 0.5 µg/mL (≈ 0.863 µM) | ≤ 0.008 µg/mL | 0.063 µg/mL (≈ 0.109 µM) | 0.13 µg/mL (≈ 0.224 µM) | ≤ 0.008 µg/mL | ≤ 0.008 µg/mL | ≤ 0.008 µg/mL | 0.13 µg/mL (≈ 0.224 µM) | 0.25 µg/mL (≈ 0.431 µM) | ≤ 0.008 µg/mL | 8 µg/mL (≈ 13.8 µM) | 1 µg/mL (≈ 1.73 µM) | 2 µg/mL (≈ 3.45 µM) | 0.5 µg/mL (≈ 0.863 µM) | 0.13 µg/mL (≈ 0.224 µM) | 0.031 µg/mL (≈ 0.0535 µM) | MIC ([21]; ATCC11060, 20 h): 0.13 µg/mL (≈ 0.224 µM); MIC [22]: 0.25 µg/mL (≈ 0.431 µM); MIC [23]: 0.25 µg/mL (≈ 0.431 µM); MIC [24]: 0.063 µg/mL (≈ 0.109 µM); MIC [25]: 32 µg/mL (≈ 55.2 µM) |
| CC(C)(O/N=C(\C(=O)NC1C(=O)N2C(C(=O)[O-])=C(CSc3nc(N)cc(N)[n+]3-c3ccc(O)cc3)CSC12)c1csc(N)n1)C(=O)O (stereo not shown) [Compound I-36] | 16 µg/mL (≈ 22.8 µM) | 32 µg/mL (≈ 45.6 µM) | 0.13 µg/mL (≈ 0.185 µM) | 0.25 µg/mL (≈ 0.356 µM) | 2 µg/mL (≈ 2.85 µM) | 0.063 µg/mL (≈ 0.0898 µM) | 0.25 µg/mL (≈ 0.356 µM) | 0.25 µg/mL (≈ 0.356 µM) | 0.13 µg/mL (≈ 0.185 µM) | 0.25 µg/mL (≈ 0.356 µM) | ≤ 0.008 µg/mL | 0.13 µg/mL (≈ 0.185 µM) | 0.13 µg/mL (≈ 0.185 µM) | ≤ 0.008 µg/mL | 2 µg/mL (≈ 2.85 µM) | 1 µg/mL (≈ 1.42 µM) | 1 µg/mL (≈ 1.42 µM) | 0.5 µg/mL (≈ 0.712 µM) | 0.5 µg/mL (≈ 0.712 µM) | 0.063 µg/mL (≈ 0.0898 µM) | MIC [21, 26]: 0.25 µg/mL (≈ 0.356 µM); MIC [22]: 2 µg/mL (≈ 2.85 µM); MIC [23]: 4 µg/mL (≈ 5.7 µM); MIC [24]: 2 µg/mL (≈ 2.85 µM); MIC [25]: > 128 µg/mL |
| CCCC[n+]1c(N)cc(N)nc1SCC1=C(C(=O)[O-])N2C(=O)C(NC(=O)/C(=N\OC(C)(C)C(=O)O)c3nsc(N)n3)C2SC1 (stereo not shown) [Compound I-29] | 32 µg/mL (≈ 48 µM) | 128 µg/mL (≈ 192 µM) | 0.25 µg/mL (≈ 0.375 µM) | 0.25 µg/mL (≈ 0.375 µM) | 1 µg/mL (≈ 1.5 µM) | 0.063 µg/mL (≈ 0.0945 µM) | 0.25 µg/mL (≈ 0.375 µM) | 0.25 µg/mL (≈ 0.375 µM) | 0.13 µg/mL (≈ 0.195 µM) | 0.5 µg/mL (≈ 0.75 µM) | 0.016 µg/mL (≈ 0.024 µM) | 1 µg/mL (≈ 1.5 µM) | 1 µg/mL (≈ 1.5 µM) | ≤ 0.008 µg/mL | 8 µg/mL (≈ 12 µM) | 4 µg/mL (≈ 6 µM) | 2 µg/mL (≈ 3 µM) | 0.5 µg/mL (≈ 0.75 µM) | 0.5 µg/mL (≈ 0.75 µM) | 0.13 µg/mL (≈ 0.195 µM) | MIC [21, 26]: 0.5 µg/mL (≈ 0.75 µM); MIC [22]: 4 µg/mL (≈ 6 µM); MIC [23]: 8 µg/mL (≈ 12 µM); MIC [24]: 8 µg/mL (≈ 12 µM); MIC [25]: > 128 µg/mL |
| CO/N=C(\C(=O)NC1C(=O)N2C(C(=O)[O-])=C(CSc3nc(N)cc(N)[n+]3C)CSC12)c1nsc(N)n1 (stereo not shown) [Compound I-24] | 2 µg/mL (≈ 3.62 µM) | 32 µg/mL (≈ 57.9 µM) | 0.25 µg/mL (≈ 0.452 µM) | 0.13 µg/mL (≈ 0.235 µM) | 1 µg/mL (≈ 1.81 µM) | 0.063 µg/mL (≈ 0.114 µM) | 0.13 µg/mL (≈ 0.235 µM) | 0.13 µg/mL (≈ 0.235 µM) | 0.031 µg/mL (≈ 0.0561 µM) | 0.13 µg/mL (≈ 0.235 µM) | 0.063 µg/mL (≈ 0.114 µM) | 1 µg/mL (≈ 1.81 µM) | 1 µg/mL (≈ 1.81 µM) | 0.016 µg/mL (≈ 0.029 µM) | 16 µg/mL (≈ 29 µM) | 4 µg/mL (≈ 7.24 µM) | 4 µg/mL (≈ 7.24 µM) | 0.5 µg/mL (≈ 0.905 µM) | 0.25 µg/mL (≈ 0.452 µM) | 0.031 µg/mL (≈ 0.0561 µM) | MIC [21, 26]: 0.13 µg/mL (≈ 0.235 µM); MIC [22]: 0.5 µg/mL (≈ 0.905 µM); MIC [23]: 0.5 µg/mL (≈ 0.905 µM); MIC [24]: 0.25 µg/mL (≈ 0.452 µM); MIC [25]: 32 µg/mL (≈ 57.9 µM) |
